Measurements from patent US8394641B2, “Method of hydrolyzing an enzymatic substrate” (Advanced Liquid Logic Inc., priority 2009, dated 2013).

Assays:
α-glucosidase = molecular target: T1, α-glucosidase (Homo sapiens, UniProt P10253); assay: Pompe assay on bench, substrate hydrolysis with cyclodextrins, QC DBS extracts; format: biochemical; conditions: data not shown
T1 construct: DBS extracts were prepared from quality control (QC) dried blood spot samples; tissue CDC, Atlanta Ga; host or cells: dried blood spot extracts (pooled cord blood / leukoreduced red cells plus serum)
Protocol: (§1) To evaluate the efficacy of cyclodextrins in enhancing the hydrolysis of enzymatic substrates (4-MU substrates) used in NBS assays, DBS extracts were prepared from quality control (QC) dried blood spot samples (i.e., base pool (BP), low (L), medium (M) and high (H) activity samples). The QC samples were obtained from CDC, Atlanta Ga. The base pool (BP) QC sample was prepared from a pool of leukoreduced human red blood cells that was adjusted with serum to a hematocrit of 50%. The High (H) activity QC sample was prepared from pooled cord blood that was adjusted with serum to a hematocrit of 50%. The medium (M) activity QC sample was prepared by using 50% base pool (BP) and 50% high (H) activity sample. The low (L) activity QC sample was prepared by using 95% base pool (BP) and 5% high (H) activity sample. The BP sample is used as a control for hydrolysis non-specific to white blood cell lysosomal enzymes. The DBS extracts were analyzed using on-bench assay protocols for Fabry, Gaucher, Krabbe, and Pompe diseases. For each assay, on-chip reagent formulations were scaled up to bench volumes. Hydroxypropyl-β-cyclodextrin or methyl-β-cyclodextrin reagent stocks (300 mM) were prepared in appropriate assay buffers. […] Fluorescence was read at 360/460 nm at a gain of 75. For each assay, QC samples (BP, L, M and H) were analyzed in duplicate. […]

Krabbe assay = molecular target: T2, Krabbe assay (Homo sapiens, UniProt P54803); assay: Krabbe assay on bench, substrate hydrolysis with cyclodextrins, QC DBS extracts; format: biochemical; conditions: data not shown
T2 construct: DBS extracts were prepared from quality control (QC) dried blood spot samples; tissue CDC, Atlanta Ga; host or cells: dried blood spot extracts (pooled cord blood / leukoreduced red cells plus serum)
T2 sequence (P54803 43-685): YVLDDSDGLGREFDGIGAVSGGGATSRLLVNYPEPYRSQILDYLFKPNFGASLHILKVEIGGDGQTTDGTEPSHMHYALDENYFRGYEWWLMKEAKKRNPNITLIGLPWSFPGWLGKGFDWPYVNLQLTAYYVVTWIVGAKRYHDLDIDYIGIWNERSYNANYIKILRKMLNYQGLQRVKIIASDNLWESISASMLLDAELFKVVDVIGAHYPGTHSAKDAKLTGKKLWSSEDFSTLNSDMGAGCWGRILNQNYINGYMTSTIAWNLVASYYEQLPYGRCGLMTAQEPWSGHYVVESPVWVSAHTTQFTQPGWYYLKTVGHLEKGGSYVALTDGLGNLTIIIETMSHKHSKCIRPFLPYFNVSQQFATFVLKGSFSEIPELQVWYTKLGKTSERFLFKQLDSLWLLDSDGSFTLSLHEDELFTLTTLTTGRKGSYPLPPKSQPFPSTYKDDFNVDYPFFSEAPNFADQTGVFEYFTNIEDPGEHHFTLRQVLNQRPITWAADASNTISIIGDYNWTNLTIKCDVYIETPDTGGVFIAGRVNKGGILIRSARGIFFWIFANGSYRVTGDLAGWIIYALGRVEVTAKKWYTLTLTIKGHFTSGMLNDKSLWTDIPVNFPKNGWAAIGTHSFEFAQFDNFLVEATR
Protocol: as §1

Row | Substance | effect on substrate hydrolysis in a Pompe assay (α-glucosidase) | effect on substrate hydrolysis in a Krabbe assay (Krabbe assay)
1 | methyl-β-cyclodextrin | less effective | inhibitory
2 | hydroxypropyl-β-cyclodextrin | less effective | inhibitory
